Key:
[1] = Solubility and mixing of protectors in the base pharmaceutical composition; details: for Solubility in the base pharmaceutical composition: 0.95% w/w Fluralaner in Transcutol V and Tween 80 25:75
Procedure: To the base of a pharmaceutical composition as described herein, comprising isoxazoline, solvent, and surfactant, different compounds were added as protectors to prevent breakdown of isoxazoline when diluted in water with a water sanitizer such as hypochlorite.
Where the protector amount was zero, this sample served as unprotected control sample. The Fluralaner level was determined using UHPLC. The alpha-tocopherol used was alpha-tocopherol EP (Fluka).
For samples containing a protector, Fluralaner was added to a mixture of Transcutol V, Tween 80 and protector, and then mixed to dissolve.

[2] = Accelerated stability testing of pharmaceutical composition comprising a protector; type: physicochemical; details: for Appearance of the pharmaceutical composition with protector on storage: stability results up to 4 months, tests terminated
Procedure: Similar to the experiments described in Example 3 above, where the effect of water quality on Fluralaner-containing medicated drinking water was tested; here samples of the pharmaceutical composition were tested for an effect of the addition of a protector, on their stability during prolonged storage.
To test the long term stability of the pharmaceutical composition with a protector, some samples were stored under conditions of accelerated ageing. Samples of the pharmaceutical composition with or without one of the protectors, were filled out in portions of 7 gram each, in 10 ml glass vials, sealed with rubber stoppers, and stored under different conditions: 2-8° C.; 30° C./65% RH; 40° C./75% RH, and 50° C. […]

[3] = Prevention of degradation by oxidizing sanitizer (hypochlorite) in medicated drinking water; type: physicochemical; details: for Colour during incubation in sanitized water: a few days into the incubation
Procedure: The Fluralaner level was determined using UHPLC. The alpha-tocopherol used was alpha-tocopherol EP (Fluka).
To prepare the test samples, the required amounts of Transcutol and Tween were measured, combined in a beaker at room temperature, and mixed magnetically. Next, when no protector was added, the required amount of Fluralaner was weighed, added, and mixed until complete dissolution, which usually required about 10 minutes, at 70% speed. […] The complete dissolution was verified visually. Next the density of the resulting solution was checked with a Densimeter, at 20° C.
To test the capacity of the different protectors to prevent degradation of Fluralaner in medicated drinking water by an oxidising sanitizer, samples of the pharmaceutical composition as prepared above were diluted to different concentrations, and incubated with different amounts of hypochlorite. Concentrations of Fluralaner in medicated drinking water used were: 1, 5, and 10 μg/ml.
The hypochlorite used was from a 13% sodium hypochlorite solution (Acros Organics), which was prepared into samples with a concentration of hypochlorite of: 0, 0.5, 2, 5, or 10 ppm, wherein 1 ppm equals 20 μM. Samples without hypochlorite served as positive controls. While the dilutions of hypochlorite were made in purified water, one additional sample at 5 ppm hypochlorite was prepared in standard tap water (Angers, France). Control samples were tested at day zero, all others were tested after an incubation for 7 days at 40° C./75% RH.
The concentration of protector in the test sample was dependent of the dilution factor of the concentrated Fluralaner composition applied: 1:10,000, 1:2000, or 1:1000, respectively.

Structure (SMILES)	Solubility in the base pharmaceutical composition [1]	Appearance of the pharmaceutical composition with protector on storage [2]	Colour during incubation in sanitized water [3]	also measured
CCCCCCCCCCCCOC(=O)c1cc(O)c(O)c(O)c1 [Lauryl gallate, dodecyl gallate]	soluble	–	–	Appearance after mixing in the base pharmaceutical composition [1]: orange coloration; Appearance of the pharmaceutical composition with protector ([2]; shortly after preparation): orange coloration appeared
O=S([O-])S(=O)(=O)[O-].[Na+].[Na+] [Na-metabisulfite, Sodium metabisulfite]	not soluble	–	–	–
O=S([O-])[O-].[Na+].[Na+] [Na-sulphite, Sodium sulphite]	not soluble	–	–	–
Cc1cc(C(C)(C)C)c(O)c(C(C)(C)C)c1 [BHT, butylated hydroxytoluene]	soluble	discoloration	colour change did develop	–
Cc1c(C)c2c(c(C)c1O)CC[C@@](C)(CCC[C@H](C)CCC[C@H](C)CCCC(C)C)O2 [alpha-tocopherol]	–	–	–	Stability of pharmaceutical composition, interaction by protector ([2]; stability data up to 18 months): lack of interaction; Level of alpha-tocopherol in pharmaceutical composition on storage ([2]; up to 8 months, 2-8° C., 30° C./65% RH, 40° C./75% RH, 50° C.): no significant reduction; Protection of Fluralaner from degradation in sanitized drinking water ([3]; Fluralaner 1 μg/ml and 10 ppm hypochlorite, 7 days): could not protect; Protection of Fluralaner from degradation in sanitized drinking water ([3]; Fluralaner at 5 or 10 μg/ml, up to 7 days, 40° C., up to 10 ppm hypochlorite): completely protect
COc1ccc(O)c(C(C)(C)C)c1 [BHA, butylated hydroxyanisole]	soluble	discoloration	colour change did develop	–

— patent US11179372B2, “Isoxazoline solution containing vitamin E for use with sanitized drinking water” (Intervet Inc., priority 2015, dated 2021)
